{"source": "patent US12427151B2", "about": "“Compositions and method of treating cancer” (The Regents of the University of California, priority 2017, dated 2025)", "key": {"GAS [1]": {"system": "GAS", "test": "Stability of antimicrobial activity after heat or protease treatment (radial diffusion assay)", "type": "physicochemical, group A streptococcus", "settings": "activity against GAS", "excerpt": "(a) Screening for antimicrobial activity of culture supernatant from 44 strains of S. epidermidis strains isolated from normal human skin by radial diffusion assay against group A streptococcus (GAS). Data represent diameter of growth inhibition zone of conditioned media of each strain. UD=undetectable. (b) Elution profile of the antimicrobial compound purified from culture supernatant of S. epidermidis MO34 by HPLC using a PolyHYDROXYMETHYL. The last step of 5 purification steps is shown. The insert panel represents antimicrobial activity of each fraction on radial diffusion assay against GAS. Green line represents a gradient of H2O in acetonitrile. (c-d) Stability of antimicrobial molecules from S. epidermidis producing the strongest antibiotic activity (MO34) against GAS after heat-treatment (100° C. for indicated time) (c) and incubation with proteinase K (2 mg/mL) or papain (2 mg/mL) at 37° C. for 3 hrs, followed by 5-min incubation at 90° C. to inactivate enzyme (d). Antimicrobial activity against GAS was determined by radial diffusion assay.\nTo characterize the molecule(s) responsible for antimicrobial activity secreted from the MO34 strain, the antimicrobial molecule was purified from the conditioned media based on activity against GAS. A single peak was isolated in the last chromatography of 5 purification steps (FIG. 1b). […]"}, "[2]": {"system": "S. epidermidis (ATCC12228)", "test": "BrdU incorporation assay in bacteria", "type": "cell-based", "settings": "6-HAP 25 μg/mL, 60 min", "experimental": "(a) Time course killing of GAS in THB containing 6-HAP (25 μg/mL), mitomycin C (5 μg/mL), or LL-37 (10 μM). At each indicated time point, live GAS in the media was measured by counting CFU on an agar plate. The data represent mean±SE of four individual experiments. (b) Membrane permeability of GAS incubated in THB containing 6-HAP (25 μg/mL), mitomycin C (5 μg/mL) and LL-37 (10 μM) for 1 hr. The bacteria with compromised plasma membranes (Red) can be distinguished from those with intact membranes (Green). (c) BrdU incorporation into nascent DNA of GAS after incubation with 6-HAP (25 μg/mL) or mitomycin C (5 μg/mL) in THB containing BrdU (10 μM) for 30 or 60 min. (d) BrdU incorporation into nascent DNA of S. epidermidis ATCC12228 after incubation with 6-HAP (25 μg/mL) or mitomycin C (5 μg/mL) in THB containing BrdU (10 μM) for 60 min. The data represent mean±SE of five individual experiments (*P<0.05 and **P<0.01 by Student's t-test vs vehicle control). (e-f) Capacity of 6-HAP to block in vitro DNA extension by Klenow fragment polymerase. […] Extension reaction was analyzed on a 20% acrylamide gel by electrophoresis (f). […] GAS survival was measured by counting CFU. […]\nBrdU incorporation assay. […] BrdU incorporation into nascent DNA was measured in a time-dependent manner using BrdU incorporation assay kit (Roche) according to the manual."}, "B16F10 melanoma": {"system": "B16F10 melanoma", "test": "In vivo tumor growth assay", "set-up": "species or system C57BL6 mice", "settings": "intravenous 20 mg/kg every 48 hrs for 2 weeks", "experimental": "(a-c) Effect of a single intravascular injection of 6-HAP on skin infection by GAS. The size of the infected lesion was measured by Image-J software (a). Representative images of infected skin (arrow) of mouse treated with 6-HAP or vehicle at Day-1 and Day-3 post infection are shown in (b). Infected skin was removed 24 and 72 hrs after bacterial injection and homogenized in PBS (c). CFUs were enumerated by plating serial dilutions of the homogenate on an agar plate. The data represent mean±SE of eight individual experiments (*P<0.05 and **P<0.01 by Student's t-test vs vehicle control). (d-e) Effect of repeated intravascular administrations with 6-HAP on growth of melanoma in mice. The data represent mean±SE of 10 individual experiments (*P<0.05, **P<0.01 and ***P<0.001 by Student's t-test vs vehicle control) (d). Representative images of tumor (broken line) in mouse treated with 6-HAP or vehicle at Day-9 and Day-13 are shown in (e).\nIn vivo tumor growth assay. B16F10 were suspended in sterile PBS. Shaved mouse dorsal skin was intradermally injected with 3×10^5 cells/50 μL. The C57BL6 mice were subsequently injected with 6-HAP dissolved in 2.5% DMSO/0.9% NaCl solution (40 mg/mL) at the dose of 20 mg/kg mouse via intravascular route every 48 hrs for 2 weeks. […] Tumor size was measured as the two perpendicular diameters with a caliper and volume was estimated by a formula, width^2×length/2. […]"}, "GAS [3]": {"system": "GAS", "test": "Comparison of antimicrobial activity of natural and synthetic 6-HAP", "type": "cell-based, group A Streptococcus", "settings": "THB overnight, OD600", "experimental": "GAS (1×10^5 CFU/mL) were incubated with indicated concentrations of purified 6-HAP or synthetic 6-HAP in THB overnight. Bacterial growth was monitored by measuring OD600 (relative % of growth index).\nStructural analyses of antibiotic produced by S. epidermidis. High-resolution electrospray (ES)-mass spectrometry analysis of the purified antimicrobial fraction identified a molecule with a mass of 151.0487, predicting a molecular formula of C5H5N5O (calculated: 151.0489) (FIG. 3a). […] Given the chemical formula as C5H5N5O, the structure was predicted as 6-N-hydroxyaminopurine (6-HAP). To confirm this predicted structure we performed a chemical synthesis of 6-HAP. […] In addition, the fragmentation profile of natural compound by electron-impact MS (FIG. 3e) also matched that of synthetic product (FIG. 3f)."}}}
{"smiles": "ONc1ncnc2nc[nH]c12", "note": "[6-HAP, 6-N-hydroxyaminopurine]", "values": [{"measurement": "heat stability of antimicrobial activity", "setting": "GAS [1]; 100° C. for indicated time", "value": "heat-stable"}, {"measurement": "protease sensitivity of antimicrobial activity", "setting": "GAS [1]; proteinase K (2 mg/mL) or papain (2 mg/mL) at 37° C. for 3 hrs", "value": "protease-insensitive"}, {"measurement": "BrdU incorporation in S. epidermidis", "setting": "[2]", "value": "did not affect"}, {"measurement": "tumor size suppression compared to vehicle", "setting": "B16F10 melanoma", "value": "> 60", "unit": "%"}, {"measurement": "antimicrobial activity against GAS, synthetic versus natural product", "setting": "GAS [3]", "value": "comparable to that of natural product"}]}
